Results: ChEMBL document CHEMBL4840372, “Talarodrides A-F, Nonadrides from the Antarctic Sponge-Derived Fungus Talaromyces sp. HDN1820200” (J Nat Prod, 2021)
Values after ≈ are worked out from the molar mass of the structure shown.

Key:
K562 = assay: Cytotoxicity against human K562 cells assessed as reduction in cell viability by MTT assay; format: functional, cell-based
Bel-7402 = assay: Cytotoxicity against human Bel-7402 cells assessed as reduction in cell viability by SRB assay; format: functional, cell-based
HCT-116 = assay: Cytotoxicity against human HCT-116 cells assessed as reduction in cell viability by SRB assay; format: functional, cell-based
A549 = assay: Cytotoxicity against human A549 cells assessed as reduction in cell viability by SRB assay; format: functional, cell-based
HeLa = assay: Cytotoxicity against human HeLa cells assessed as reduction in cell viability by SRB assay; format: functional, cell-based
L02 = assay: Cytotoxicity against human L02 cells assessed as reduction in cell viability by SRB assay; format: cell-based
GES1 = assay: Cytotoxicity against human GES1 cells assessed as reduction in cell viability by SRB assay; format: functional, cell-based
U-87 MG = assay: Cytotoxicity against human U87 cells assessed as reduction in cell viability by SRB assay; format: functional, cell-based, U-87MG ATCC
ASPC1 = assay: Cytotoxicity against human ASPC1 cells assessed as reduction in cell viability by SRB assay; format: functional, cell-based
SH-SY5Y = assay: Cytotoxicity against human SH-SY5Y cells assessed as reduction in cell viability by SRB assay; format: functional, cell-based
PC-3 = assay: Cytotoxicity against human PC-3 cells assessed as reduction in cell viability by SRB assay; format: functional, cell-based
MGC-803 = assay: Cytotoxicity against human MGC-803 cells assessed as reduction in cell viability by SRB assay; format: functional, cell-based
[1] = Cytotoxicity against human HO-8910 cells assessed as reduction in cell viability by SRB assay; format: functional, cell-based
MCF7 = assay: Cytotoxicity against human MCF7 cells assessed as reduction in cell viability by SRB assay; format: functional, cell-based
MDA-MB-231 = assay: Cytotoxicity against human MDA-MB-231 cells assessed as reduction in cell viability by SRB assay; format: functional, cell-based
NCI-H446 = assay: Cytotoxicity against human NCI-H446 cells assessed as reduction in cell viability by SRB assay; format: functional, cell-based
Bacillus cereus = assay: Antimicrobial activity against Bacillus cereus assessed as reduction in bacterial growth by agar dilution method; format: functional
Acinetobacter baumannii = assay: Antimicrobial activity against Acinetobacter baumannii assessed as reduction in bacterial growth by agar dilution method; format: functional
Proteus mirabilis = assay: Antimicrobial activity against Proteus mirabilis assessed as reduction in bacterial growth by agar dilution method; format: functional
Mycolicibacterium phlei = assay: Antimicrobial activity against Mycobacterium phlei assessed as reduction in bacterial growth by agar dilution method; format: functional
Edwardsiella tarda = assay: Antimicrobial activity against Edwardsiella tarda assessed as reduction in bacterial growth by agar dilution method; format: functional
Escherichia coli = assay: Antimicrobial activity against Escherichia coli assessed as reduction in bacterial growth by agar dilution method; format: functional
Bacillus subtilis = assay: Antimicrobial activity against Bacillus subtilis assessed as reduction in bacterial growth by agar dilution method; format: functional
Staphylococcus aureus = assay: Antimicrobial activity against methicillin-resistant Staphylococcus aureus assessed as reduction in bacterial growth by agar dilution method; format: functional
Vibrio parahaemolyticus = assay: Antimicrobial activity against Vibrio parahaemolyticus assessed as reduction in bacterial growth by agar dilution method; format: functional
Staphylococcus = assay: Antimicrobial activity against methicillin-resistant coagulase-negative Staphylococci assessed as reduction in bacterial growth by agar dilution method; format: functional

| SMILES | IC50 (K562) [µM] | IC50 (Bel-7402) [µM] | IC50 (HCT-116) [µM] | IC50 (A549) [µM] | IC50 (HeLa) [µM] | IC50 (L02) [µM] | IC50 (GES1) [µM] | IC50 (U-87 MG) [µM] | IC50 (ASPC1) [µM] | IC50 (SH-SY5Y) [µM] | MIC (Bacillus cereus) [µM] | MIC (Acinetobacter baumannii) [µM] | MIC (Proteus mirabilis) [µM] | MIC (Mycolicibacterium phlei) [µM] | MIC (Edwardsiella tarda) [µM] | MIC (Escherichia coli) [µM] | MIC (Bacillus subtilis) [µM] | MIC (Staphylococcus aureus) [µM] | MIC (Vibrio parahaemolyticus) [µM] | MIC (Staphylococcus) [µM] | other results |
| --- | --- | --- | --- | --- | --- | --- | --- | --- | --- | --- | --- | --- | --- | --- | --- | --- | --- | --- | --- | --- | --- |
| CCCCCCC1C([C@@H](O)C(=O)[C@H](O)CCC)C=C2C3(OC)OC(=O)[C@]2(C)CC2=C(C(=O)OC2=O)C13 (stereo partly specified) | > 30 | > 30 | > 30 | > 30 | > 30 | > 30 | > 30 | > 30 | > 30 | > 30 | > 50 | > 50 | 3.13 (≈ 1.58 µg/mL) | > 50 | > 50 | > 50 | > 50 | > 50 | 6.13 (≈ 3.09 µg/mL) | > 50 | IC50 (PC-3): > 30 µM; IC50 (MGC-803): > 30 µM; IC50 [1]: > 30 µM; IC50 (MCF7): > 30 µM; IC50 (MDA-MB-231): > 30 µM; IC50 (NCI-H446): > 30 µM |
| CCCCCCC1C([C@@H](O)C(=O)[C@H](O)CCC)C=C2C3(O)OC(=O)[C@]2(C)CC2=C(C(=O)OC2=O)C13 (stereo partly specified) | > 30 | > 30 | > 30 | > 30 | > 30 | > 30 | > 30 | > 30 | > 30 | > 30 | > 50 | > 50 | 12.5 (≈ 6.13 µg/mL) | > 50 | > 50 | > 50 | > 50 | > 50 | > 50 | > 50 | IC50 (PC-3): > 30 µM; IC50 (MGC-803): > 30 µM; IC50 [1]: > 30 µM; IC50 (MCF7): > 30 µM; IC50 (MDA-MB-231): > 30 µM; IC50 (NCI-H446): > 30 µM |
| CCCC[C@H]1CC2C([C@@H](O)C(=O)[C@H](O)CCC)C=C3C4(OC(=O)[C@]3(C)CC3=C(C(=O)OC3=O)C24)O1 (stereo partly specified) | > 30 | > 30 | > 30 | > 30 | > 30 | > 30 | > 30 | > 30 | > 30 | > 30 | > 50 | > 50 | > 50 | > 50 | > 50 | > 50 | > 50 | > 50 | > 50 | > 50 | IC50 (PC-3): > 30 µM; IC50 (MGC-803): > 30 µM; IC50 [1]: > 30 µM; IC50 (MCF7): > 30 µM; IC50 (MDA-MB-231): > 30 µM; IC50 (NCI-H446): > 30 µM |
| CCCCCCC1C2C(=O)C(=CC1[C@@H](O)C(=O)[C@H](O)CCC)[C@](C)(C(=O)OC)CC1=C2C(=O)OC1=O (stereo partly specified) | > 30 | > 30 | > 30 | > 30 | > 30 | > 30 | > 30 | > 30 | > 30 | > 30 | > 50 | > 50 | > 50 | > 50 | > 50 | > 50 | > 50 | > 50 | > 50 | > 50 | IC50 (PC-3): > 30 µM; IC50 (MGC-803): > 30 µM; IC50 [1]: > 30 µM; IC50 (MCF7): > 30 µM; IC50 (MDA-MB-231): > 30 µM; IC50 (NCI-H446): > 30 µM |
| CCCCCCC1C([C@@H](O)C(=O)[C@H](C)CCC)C=C2C3(OC)OC(=O)[C@]2(C)CC2=C(C(=O)OC2=O)C13 (stereo partly specified) | > 30 | > 30 | > 30 | > 30 | > 30 | > 30 | > 30 | > 30 | > 30 | > 30 | > 50 | > 50 | > 50 | > 50 | > 50 | > 50 | > 50 | > 50 | > 50 | > 50 | IC50 (PC-3): > 30 µM; IC50 (MGC-803): > 30 µM; IC50 [1]: > 30 µM; IC50 (MCF7): > 30 µM; IC50 (MDA-MB-231): > 30 µM; IC50 (NCI-H446): > 30 µM |
| CCCCCCC1C2C(=O)C(=CC1[C@@H](O)C(=O)[C@H](O)CCC)[C@@H](C)CC1=C2C(=O)OC1=O (stereo partly specified) | > 30 | > 30 | > 30 | > 30 | > 30 | > 30 | > 30 | > 30 | > 30 | > 30 | > 50 | > 50 | > 50 | > 50 | > 50 | > 50 | > 50 | > 50 | > 50 | > 50 | IC50 (PC-3): > 30 µM; IC50 (MGC-803): > 30 µM; IC50 [1]: > 30 µM; IC50 (MCF7): > 30 µM; IC50 (MDA-MB-231): > 30 µM; IC50 (NCI-H446): > 30 µM |
| O=C(O)c1cn(C2CC2)c2cc(N3CCNCC3)c(F)cc2c1=O [CIPROFLOXACIN] |  |  |  |  |  |  |  |  |  |  | 0.78 (≈ 0.258 µg/mL) | 25 (≈ 8.28 µg/mL) | 0.098 (≈ 0.0325 µg/mL) | 0.195 (≈ 0.0646 µg/mL) | 0.0245 (≈ 0.00812 µg/mL) | 25 (≈ 8.28 µg/mL) | 0.195 (≈ 0.0646 µg/mL) | 25 (≈ 8.28 µg/mL) | 0.39 (≈ 0.129 µg/mL) | 25 (≈ 8.28 µg/mL) |  |
